The structures appear in SMILES notation.

One assay has as its system humans. The note with it: ref Trachsel 2012; cited from earlier work.
In a further assay the target is T1, h5-HT2A receptor (Homo sapiens, UniProt P28223).
T1 construct: expressed in transfected cells; host or cells: HEK 293 cells (membrane preparations)
In words: Radioligand binding at h5-HT2A receptor ([3H]ketanserin). The note with it: for Selectivity 5-HT2A vs. 5-HT1A / Selectivity 5-HT2A vs. 5-HT2C: binding ratio; for Ki: h5-HT2A Receptor binding Ki ± SD, [3H]ketanserin, mean ± SD.

The target in assay [1] is T2, dopaminergic hD2 receptor (Homo sapiens, UniProt P14416).
T2 construct: expressed in transfected cells; host or cells: HEK 293 cells (membrane preparations)
T2 sequence (P14416 whole entry): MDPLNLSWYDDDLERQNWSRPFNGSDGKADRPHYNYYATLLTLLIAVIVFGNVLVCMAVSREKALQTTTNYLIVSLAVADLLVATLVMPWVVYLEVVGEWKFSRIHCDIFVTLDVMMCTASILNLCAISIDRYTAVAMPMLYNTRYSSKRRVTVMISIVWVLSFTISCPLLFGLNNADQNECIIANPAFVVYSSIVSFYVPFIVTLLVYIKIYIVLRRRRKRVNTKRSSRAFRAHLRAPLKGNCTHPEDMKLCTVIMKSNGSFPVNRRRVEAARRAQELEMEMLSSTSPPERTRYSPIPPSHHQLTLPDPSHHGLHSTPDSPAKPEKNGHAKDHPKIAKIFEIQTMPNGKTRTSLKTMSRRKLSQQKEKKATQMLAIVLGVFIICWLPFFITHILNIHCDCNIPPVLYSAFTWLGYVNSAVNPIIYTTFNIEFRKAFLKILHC
In words: Radioligand binding at dopaminergic hD2 receptor ([3H]spiperone).

A further assay has as its target T3, hNET (Homo sapiens, UniProt P23975).
T3 construct: expressed in transfected cells; host or cells: HEK 293 cells (membrane preparations)
The assay can be described thus: Radioligand binding at hNET (N-methyl-[3H]nisoxetine).

The next assay addresses T4, hSERT (Homo sapiens, UniProt P31645).
T4 construct: expressed in transfected cells; host or cells: HEK 293 cells (membrane preparations)
In words: Radioligand binding at hSERT ([3H]citalopram).

For the next assay, the target named is human 5-HT2B receptor (Homo sapiens, UniProt P41595). The note with it: for Emax: HEK293, read-out: h5-HT2B Activation efficacy max ± SD, relative to 5-HT = 100%; for EC50: h5-HT2B Activation potency EC50 ± SD, HEK 293 cells, calcium FLIPR, mean ± SD.
human 5-HT2B receptor, sequence (P41595 whole entry): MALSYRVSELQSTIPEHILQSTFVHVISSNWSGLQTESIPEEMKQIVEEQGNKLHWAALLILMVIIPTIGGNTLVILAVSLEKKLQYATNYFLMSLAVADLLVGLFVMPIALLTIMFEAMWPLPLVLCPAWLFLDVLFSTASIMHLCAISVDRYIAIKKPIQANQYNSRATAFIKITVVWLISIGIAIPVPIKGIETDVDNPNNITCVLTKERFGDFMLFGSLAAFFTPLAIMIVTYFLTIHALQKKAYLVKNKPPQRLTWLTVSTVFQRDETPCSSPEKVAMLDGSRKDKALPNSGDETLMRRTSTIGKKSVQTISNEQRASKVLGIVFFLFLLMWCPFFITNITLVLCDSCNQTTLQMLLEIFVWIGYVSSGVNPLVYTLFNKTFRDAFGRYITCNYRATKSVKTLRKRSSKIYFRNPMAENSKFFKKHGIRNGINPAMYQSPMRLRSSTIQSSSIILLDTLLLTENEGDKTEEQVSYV
Another assay addresses T5, hDAT (Homo sapiens, UniProt Q01959).
T5 construct: expressed in transfected cells; host or cells: HEK 293 cells (membrane preparations)
In words: Radioligand binding at hDAT ([3H]WIN35,428).

A further assay concerns the target T6, h5-HT1A receptor (Homo sapiens, UniProt P08908).
T6 construct: expressed in transfected cells; host or cells: HEK 293 cells (membrane preparations)
T6 sequence (P08908 1-422): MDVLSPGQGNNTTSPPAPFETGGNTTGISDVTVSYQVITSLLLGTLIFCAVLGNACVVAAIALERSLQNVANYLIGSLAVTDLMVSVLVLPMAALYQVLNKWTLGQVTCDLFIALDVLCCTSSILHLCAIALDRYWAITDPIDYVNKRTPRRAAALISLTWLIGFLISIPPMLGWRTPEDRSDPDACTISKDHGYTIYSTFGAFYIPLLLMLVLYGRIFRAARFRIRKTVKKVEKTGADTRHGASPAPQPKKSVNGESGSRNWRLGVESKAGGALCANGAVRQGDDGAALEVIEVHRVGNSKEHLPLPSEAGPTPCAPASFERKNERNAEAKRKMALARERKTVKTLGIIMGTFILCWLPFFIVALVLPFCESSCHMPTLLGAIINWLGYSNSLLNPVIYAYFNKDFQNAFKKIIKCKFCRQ
In words: Radioligand binding at h5-HT1A receptor ([3H]8-OH-DPAT).

In the next assay the test system is head twitch response. Set-up: method as in Halberstadt et al. (2019). The note with it: ref Halberstadt et al. (2019); cited from earlier work.

T5 sequence (Q01959 whole entry): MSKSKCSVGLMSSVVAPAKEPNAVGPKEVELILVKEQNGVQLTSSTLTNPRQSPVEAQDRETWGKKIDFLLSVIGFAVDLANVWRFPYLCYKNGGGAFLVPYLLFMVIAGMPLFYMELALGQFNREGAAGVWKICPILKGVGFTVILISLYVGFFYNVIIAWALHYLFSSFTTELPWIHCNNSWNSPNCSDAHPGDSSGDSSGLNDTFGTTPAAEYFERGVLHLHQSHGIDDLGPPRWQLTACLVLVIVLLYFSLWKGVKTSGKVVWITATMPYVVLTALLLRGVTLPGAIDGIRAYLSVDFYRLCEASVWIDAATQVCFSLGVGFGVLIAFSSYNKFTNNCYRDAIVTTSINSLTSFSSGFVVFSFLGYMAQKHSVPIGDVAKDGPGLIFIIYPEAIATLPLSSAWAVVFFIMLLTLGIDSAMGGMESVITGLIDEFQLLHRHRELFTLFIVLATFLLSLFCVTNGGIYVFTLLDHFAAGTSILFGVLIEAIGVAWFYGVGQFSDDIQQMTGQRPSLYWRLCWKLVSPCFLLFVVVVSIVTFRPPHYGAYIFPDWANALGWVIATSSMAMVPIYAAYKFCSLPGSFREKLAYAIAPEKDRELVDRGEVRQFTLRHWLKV
T3 sequence (P23975 whole entry): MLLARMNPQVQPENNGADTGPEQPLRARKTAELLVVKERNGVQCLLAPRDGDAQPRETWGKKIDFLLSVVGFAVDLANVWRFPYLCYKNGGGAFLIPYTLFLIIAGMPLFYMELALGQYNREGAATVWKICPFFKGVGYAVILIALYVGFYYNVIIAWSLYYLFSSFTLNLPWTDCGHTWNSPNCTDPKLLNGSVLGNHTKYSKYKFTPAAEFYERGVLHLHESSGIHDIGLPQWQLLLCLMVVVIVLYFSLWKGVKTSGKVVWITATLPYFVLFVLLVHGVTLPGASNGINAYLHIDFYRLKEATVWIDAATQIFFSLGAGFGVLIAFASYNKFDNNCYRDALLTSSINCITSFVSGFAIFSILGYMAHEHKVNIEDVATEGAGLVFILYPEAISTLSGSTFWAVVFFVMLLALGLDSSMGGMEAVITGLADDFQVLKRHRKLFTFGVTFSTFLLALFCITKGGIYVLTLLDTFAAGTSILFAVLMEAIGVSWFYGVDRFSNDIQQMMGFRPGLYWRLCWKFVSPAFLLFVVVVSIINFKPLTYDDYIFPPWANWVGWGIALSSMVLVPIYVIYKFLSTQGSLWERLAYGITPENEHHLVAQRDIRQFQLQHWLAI
T1 sequence (P28223 whole entry): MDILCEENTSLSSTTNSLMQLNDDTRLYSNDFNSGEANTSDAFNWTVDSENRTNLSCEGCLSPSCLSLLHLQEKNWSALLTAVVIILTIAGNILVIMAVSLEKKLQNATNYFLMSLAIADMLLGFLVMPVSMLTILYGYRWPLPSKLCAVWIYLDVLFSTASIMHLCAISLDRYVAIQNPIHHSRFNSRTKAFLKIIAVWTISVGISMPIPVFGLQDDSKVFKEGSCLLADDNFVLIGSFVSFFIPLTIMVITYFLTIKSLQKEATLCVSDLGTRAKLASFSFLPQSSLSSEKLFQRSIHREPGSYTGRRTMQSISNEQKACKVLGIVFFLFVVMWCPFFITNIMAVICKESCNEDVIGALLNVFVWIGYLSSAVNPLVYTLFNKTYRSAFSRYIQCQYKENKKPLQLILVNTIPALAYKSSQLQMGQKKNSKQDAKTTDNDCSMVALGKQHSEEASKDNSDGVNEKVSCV
T4 sequence (P31645 whole entry): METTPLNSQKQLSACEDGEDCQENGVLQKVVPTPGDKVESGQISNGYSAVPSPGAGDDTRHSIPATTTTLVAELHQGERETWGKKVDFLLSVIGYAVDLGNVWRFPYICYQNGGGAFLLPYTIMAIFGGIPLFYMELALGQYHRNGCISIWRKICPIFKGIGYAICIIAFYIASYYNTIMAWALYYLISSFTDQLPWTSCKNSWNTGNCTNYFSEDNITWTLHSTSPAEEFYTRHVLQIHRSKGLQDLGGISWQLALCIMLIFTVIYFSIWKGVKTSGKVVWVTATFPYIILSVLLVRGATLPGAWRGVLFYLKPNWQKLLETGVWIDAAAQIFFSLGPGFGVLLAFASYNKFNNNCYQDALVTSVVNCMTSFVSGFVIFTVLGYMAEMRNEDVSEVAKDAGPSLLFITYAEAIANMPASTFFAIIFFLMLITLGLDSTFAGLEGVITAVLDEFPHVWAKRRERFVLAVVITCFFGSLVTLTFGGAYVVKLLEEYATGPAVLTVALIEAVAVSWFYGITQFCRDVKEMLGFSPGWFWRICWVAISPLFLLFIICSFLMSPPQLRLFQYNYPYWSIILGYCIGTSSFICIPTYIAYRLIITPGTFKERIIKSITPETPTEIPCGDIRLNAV

Usually Ki stands for a measure of affinity in units of concentration, obtained from inhibition or displacement. A word on the EC50: it is the concentration giving half of the maximal effect. In the case of `COc1cc(CCN)cc(OC)c1OC(F)(F)F` [compound 13, 4-trifluoromethoxy-3,5-dimethoxyphenethylamine], in the assay on humans, the “Increase in human potency compared to mescaline (5)” value is reported as above 9 fold. Also, the “Selectivity 5-HT2A vs. 5-HT1A” value on h5-HT2A receptor is 7.9. Also, the “Selectivity 5-HT2A vs. 5-HT2C” value at h5-HT2A receptor stood at 1.0. In addition, the Ki on h5-HT2A receptor is 0.28 ± 0.1 µM; in assay [1], above 6.3 µM; on hNET, above 9.7 µM; on hSERT, above 7.5 µM; at hDAT, above 8.5 µM; on h5-HT1A receptor, 2.2 µM. The “Higher affinity at the 5-HT2A receptor compared to mescaline (5)” value (from here on “Higher affinity … compared to mescaline (5)”) at h5-HT2A receptor (ratio of Ki values) was 17- to 63 fold. Further, the Emax at human 5-HT2B receptor came out at 45 ± 6%. Moreover, the EC50 at human 5-HT2B receptor was determined as 0.088 ± 0.02 µM.
Regarding `COc1cc(CC(C)N)cc(OC)c1OC(F)F` (stereo not shown) [compound 14, 4-difluoromethoxy-3,5-dimethoxyamphetamine], at h5-HT2A receptor, the “Selectivity 5-HT2A vs. 5-HT2C” value was determined as 2.6. In addition, the Ki on h5-HT2A receptor was 1.4 µM; in assay [1], above 6.3 µM; on hNET it was above 9.7 µM; at hSERT, above 7.5 µM; at hDAT, above 8.5 µM; at h5-HT1A receptor, above 5.6 µM. The Emax on human 5-HT2B receptor was in the range of 18 to 29%. At human 5-HT2B receptor, the EC50 was 0.15 ± 0.1 µM.
For the compound `COc1cc(CCN)cc(OC)c1OCC(F)(F)F` [compound 18, 3,5-dimethoxy-4-(2,2,2-trifluoroethoxy)phenethylamine], the “Selectivity 5-HT2A vs. 5-HT2C” value on h5-HT2A receptor came to 0.9. In addition, the Ki on h5-HT2A receptor is 1.3 µM; in assay [1] it was above 6.3 µM; on hNET, above 9.7 µM; at hSERT, above 7.5 µM; on hDAT, above 8.5 µM; at h5-HT1A receptor it was above 5.6 µM. In addition, on human 5-HT2B receptor, the Emax worked out at 29 ± 14%. For the same compound, at human 5-HT2B receptor, the EC50 was determined as 0.21 ± 0.13 µM.
For `COc1cc(CCN)cc(OC)c1OC(CF)CF` [compound 23, 3,5-dimethoxy-4-(1,3-difluoroprop-2-yloxy)phenethylamine], the Ki at h5-HT2A receptor is above 12 µM; in [1] it was above 6.3 µM; at hNET, above 9.7 µM; at hSERT it was above 7.5 µM; at hDAT it was above 8.5 µM; on h5-HT1A receptor it was above 5.6 µM. For the same compound, the EC50 at human 5-HT2B receptor is above 10 µM.
Consider `COc1cc(CCN)cc(OC)c1OCCCF` [compound 25, 3,5-dimethoxy-4-(3-fluoropropoxy)-phenethylamine], for which the “Selectivity 5-HT2A vs. 5-HT1A” value on h5-HT2A receptor is listed as below 1. Besides, the “Selectivity 5-HT2A vs. 5-HT2C” value at h5-HT2A receptor was 0.6. In addition, the Ki is 9.3 µM on h5-HT2A receptor; above 6.3 µM in [1]; above 9.7 µM at hNET; above 7.5 µM at hSERT; above 8.5 µM on hDAT; above 5.6 µM on h5-HT1A receptor. The EC50 at human 5-HT2B receptor was above 10 µM.
For the compound `COc1cc(CCN)cc(OC)c1OCCC(F)(F)F` [compound 26, 3,5-dimethoxy-4-(3,3,3-trifluoropropoxy)phenethylamine], on h5-HT2A receptor, the “Selectivity 5-HT2A vs. 5-HT1A” value is given as above 1. Besides, the “Selectivity 5-HT2A vs. 5-HT2C” value on h5-HT2A receptor is 1.1. Further, the Ki at h5-HT2A receptor was 5 µM; in assay [1], above 6.3 µM; on hNET, above 9.7 µM; at hSERT, above 7.5 µM; at hDAT, above 8.5 µM; on h5-HT1A receptor it was above 5.6 µM. In addition, at human 5-HT2B receptor, the EC50 was above 10 µM.
Turning to `CCCOc1c(OC)cc(CC(C)N)cc1OC` (stereo not shown) [compound 28, 3,5-dimethoxy-4-propyloxyamphetamine], the “Selectivity 5-HT2A vs. 5-HT2C” value at h5-HT2A receptor came to 2.0. Moreover, the Ki at h5-HT2A receptor was 1 µM; in assay [1] it was above 6.3 µM; at hNET it was above 9.7 µM; at hSERT, above 7.5 µM; at hDAT, above 8.5 µM; at h5-HT1A receptor, above 5.6 µM. Moreover, the “Increase in 5-HT2A receptor affinity compared with TMA (6)” value at h5-HT2A receptor (ratio of Ki values) is at least 10 fold. The Head twitch response entry in the assay on head twitch response is “induced a head twitch response with almost identical potency”. Also, the EC50 on human 5-HT2B receptor was above 10 µM.
Consider `COc1cc(CCN)cc(OC)c1OC1CC1` [compound 29, 4-cyclopropyloxy-3,5-dimethoxyphenethylamine], for which the “Selectivity 5-HT2A vs. 5-HT1A” value on h5-HT2A receptor is listed as 0.9. Moreover, the “Selectivity 5-HT2A vs. 5-HT2C” value on h5-HT2A receptor came to 1.3. The Ki on h5-HT2A receptor was 4.3 µM; in assay [1] it was above 6.3 µM; at hNET, above 9.7 µM; on hSERT, above 7.5 µM; at hDAT it was above 8.5 µM; on h5-HT1A receptor, 4 µM. Also, the EC50 on human 5-HT2B receptor is above 10 µM.
For the compound `C=C(C)COc1c(OC)cc(CCN)cc1OC` [compound 32, 3,5-dimethoxy-4-methallyloxyphenethylamine], the “Selectivity 5-HT2A vs. 5-HT1A” value on h5-HT2A receptor was 9.3. Besides, at h5-HT2A receptor, the “Selectivity 5-HT2A vs. 5-HT2C” value is on record as 0.9. Moreover, the Ki was 0.55 ± 0.19 µM on h5-HT2A receptor; above 6.3 µM in [1]; above 9.7 µM on hNET; above 7.5 µM on hSERT; above 8.5 µM on hDAT; 5.1 µM at h5-HT1A receptor. Also, the “Higher affinity … compared to mescaline (5)” value at h5-HT2A receptor (ratio of Ki values) is listed as 17- to 63 fold. In addition, the EC50 at human 5-HT2B receptor is above 10 µM.
As to `COc1cc(CCN)cc(OC)c1OCc1ccccc1` [compound 33, 4-benzyloxy-3,5-dimethoxyphenethylamine], at h5-HT2A receptor, the “Selectivity 5-HT2A vs. 5-HT1A” value was 29. For the same compound, the “Selectivity 5-HT2A vs. 5-HT2C” value on h5-HT2A receptor amounted to 2.9. For the same compound, the inhibition constant Ki was 0.15 ± 0.01 µM at h5-HT2A receptor; above 6.3 µM in [1]; above 9.7 µM on hNET; above 7.5 µM on hSERT; above 8.5 µM on hDAT; 4.4 µM at h5-HT1A receptor. Also, at h5-HT2A receptor (ratio of Ki values), the “Higher affinity … compared to mescaline (5)” value is reported as 17- to 63 fold. For the same compound, at human 5-HT2B receptor, the EC50 is above 10 µM.

Values taken from article PMC8865417, “Receptor Interaction Profiles of 4-Alkoxy-3,5-Dimethoxy-Phenethylamines (Mescaline Derivatives) and Related Amphetamines” (Frontiers in Pharmacology, 2022).
